Laboratory results reported in ChEMBL document CHEMBL5321282, “Design, Synthesis, and Biological Evaluation of Esculetin-Furoxan-DEAC Ternary Hybrids for Anti-Triple Negative Breast Cancer” (J Med Chem, 2023).
Active and inactive are the calls of the source. The rule behind the calls is not given here.

How the values were obtained:
MCF7 = assay: Antiproliferative activity against human MCF7 cells assessed as inhibition of cell growth measured after 48 hrs by MTT assay; assay type: functional, cell-based; details: MCF7, 48 h
HCT-116 = assay: Antiproliferative activity against human HCT-116 cells assessed as inhibition of cell growth measured after 48 hrs by MTT assay; assay type: functional, cell-based; details: HCT-116, 48 h
MDA-MB-231 [1] = assay: Antiproliferative activity against human MDA-MB-231 cells assessed as inhibition of cell growth measured after 48 hrs by MTT assay; assay type: functional, cell-based; details: MDA-MB-231, 48 h
A549 = assay: Antiproliferative activity against human A549 cells assessed as inhibition of cell growth measured after 48 hrs by MTT assay; assay type: functional, cell-based; details: A549, 48 h
MDA-MB-231 [2] = assay: Antiproliferative activity against human MDA-MB-231 cells assessed as effect on NO level at 25 uM incubated for 2 hrs; assay type: functional, cell-based
[3] = Selectivity index, ratio of IC50 for cytotoxicity against human MCF-10A cells to IC50 for antiproliferative activity against human MDA-MB-231 cells; assay type: toxicity, cell-based; details: MCF-10A cells versus MDA-MB-231 cells, read-out: Ratio IC50
[4] = Cytotoxicity against human L02 cells assessed as inhibition in cell growth measured after 48 hrs by MTT assay; assay type: toxicity, cell-based
[5] = Cytotoxicity against human MCF-10A cells assessed as inhibition in cell growth measured after 48 hrs by MTT assay; assay type: toxicity, cell-based
MDA-MB-231 [6] = assay: Antiproliferative activity against human MDA-MB-231 cells assessed as inhibition of cell growth measured after 48 hrs in presence of 7-(diethylamino)-2-oxo-2H-chromene-3-carboxylic acid by MTT assay; assay type: functional, cell-based; details: MDA-MB-231, 48 h
[7] = Selectivity index, ratio of IC50 for cytotoxicity against human L02 cells to IC50 for antiproliferative activity against human MDA-MB-231 cells; assay type: toxicity, cell-based; details: L02 cells versus MDA-MB-231 cells, read-out: Ratio IC50
MDA-MB-231 [8] = assay: Induction of apoptosis in human MDA-MB-231 cells assessed as increase in CypD level incubated for 8 hrs by Western blotting analysis; assay type: functional, cell-based; details: dose 5-20 nM
MDA-MB-231 [9] = assay: Induction of apoptosis in human MDA-MB-231 cells assessed as effect on ANT level at 20 nM incubated for 8 hrs by Western blotting analysis; assay type: functional, cell-based
MDA-MB-231 [10] = assay: Antiproliferative activity against human MDA-MB-231 cells assessed as inhibition of cell growth measured after 48 hrs in presence of 3,4-bis(phenylsulfonyl)-1,2,5-oxadiazole 2-oxide by MTT assay; assay type: functional, cell-based; details: MDA-MB-231, 48 h
[11] = Toxicity in BALB/C mouse xenografted with human MDA-MB-231 cells assessed as change in body weight at 2.5 mg/kg, ip administered every 2 days measured after 3 weeks; assay type: organism-based; details: in vivo, 504 h

SMILES	IC50 (MCF7) [nM]	IC50 (HCT-116) [nM]	IC50 (MDA-MB-231 [1]) [nM]	IC50 (A549) [nM]	also measured
O=c1ccc2cc(OCCCCCCOc3no[n+]([O-])c3S(=O)(=O)c3ccccc3)c(OCCCCCCOc3no[n+]([O-])c3S(=O)(=O)c3ccccc3)cc2o1	10400	2410	148	3050	
CCN(CC)c1ccc2cc(C(=O)OCCCCCCOc3no[n+]([O-])c3S(=O)(=O)c3ccccc3)c(=O)oc2c1					Activity (MDA-MB-231 [8]): inactive; Activity (MDA-MB-231 [9]): inactive
CCN(CC)c1ccc2cc(C(=O)OCCCCOc3cc4ccc(=O)oc4cc3OCCCCCCOc3no[n+]([O-])c3S(=O)(=O)c3ccccc3)c(=O)oc2c1	2440	3750	53	1610	
O=c1ccc2cc(O)c(O)cc2o1 [ESCULETIN]	> 50000	> 50000	> 50000	> 50000	IC50 (MDA-MB-231 [10]): 7470 nM
COc1cccc2c1C(=O)c1c(O)c3c(c(O)c1C2=O)C[C@@](O)(C(=O)CO)C[C@@H]3O[C@H]1C[C@H](N)[C@H](O)[C@H](C)O1 [DOXORUBICIN]	740	150			IC50 at 48 h [4]: 600 nM; Activity [11]: Non-Toxic; IC50 at 48 h [5]: 740 nM
O=S(=O)(c1ccccc1)c1no[n+]([O-])c1S(=O)(=O)c1ccccc1			7910		
CCN(CC)c1ccc2cc(C(=O)OCCCOc3cc4ccc(=O)oc4cc3OCCCCCCOc3no[n+]([O-])c3S(=O)(=O)c3ccccc3)c(=O)oc2c1	1060	3260	53	2260	
O=c1ccc2cc(OCCCCCOc3no[n+]([O-])c3S(=O)(=O)c3ccccc3)c(OCCCCCOc3no[n+]([O-])c3S(=O)(=O)c3ccccc3)cc2o1	2120	3100	100	2820	
CCN(CC)c1ccc2cc(C(=O)OCCCCCCOc3cc4ccc(=O)oc4cc3OCCCCCCOc3no[n+]([O-])c3S(=O)(=O)c3ccccc3)c(=O)oc2c1	2990	9140	108	4430	

More lines, main results first:

IC50 (MCF7) [nM]	IC50 (HCT-116) [nM]	IC50 (MDA-MB-231 [1]) [nM]	IC50 (A549) [nM]	SMILES	also measured
11300	5970	2160	12100	O=c1ccc2cc(O)c(OCCCOc3no[n+]([O-])c3S(=O)(=O)c3ccccc3)cc2o1	
5300	2690	120	12500	O=c1ccc2cc(O)c(OCCCCCCOc3no[n+]([O-])c3S(=O)(=O)c3ccccc3)cc2o1	Activity (MDA-MB-231 [2]): Active; selectivity ratio [3]: 394; IC50 at 48 h [4]: 5730 nM; IC50 at 48 h [5]: 12600 nM; IC50 (MDA-MB-231 [6]): 130 nM; selectivity ratio [7]: 47.8
7940	4280	2160	12800	O=c1ccc2cc(O)c(OCCCCCOc3no[n+]([O-])c3S(=O)(=O)c3ccccc3)cc2o1	
8710	5020	1990	11800	O=c1ccc2cc(O)c(OCCCCOc3no[n+]([O-])c3S(=O)(=O)c3ccccc3)cc2o1	
3700	2030	42	1210	O=c1ccc2cc(OCCCCOc3no[n+]([O-])c3S(=O)(=O)c3ccccc3)c(OCCCCOc3no[n+]([O-])c3S(=O)(=O)c3ccccc3)cc2o1	Activity (MDA-MB-231 [2]): Active; selectivity ratio [3]: 153; IC50 at 48 h [4]: 5640 nM; IC50 at 48 h [5]: 6440 nM; selectivity ratio [7]: 134
2330	1120	58	1960	O=c1ccc2cc(OCCCOc3no[n+]([O-])c3S(=O)(=O)c3ccccc3)c(OCCCOc3no[n+]([O-])c3S(=O)(=O)c3ccccc3)cc2o1	
